Test results: US20160095843A1, “PYRAZOLOPYRROLIDINE DERIVATIVES AND THEIR USE IN THE TREATMENT OF DISEASE” (NOVARTIS AG, priority 2013, published 2016)

Experiments:
K-562 cells = experiment: Cell growth inhibition assay (CellTiter-Glo), K-562; assay type: cell-based, human; settings: Homo sapiens, K562
Experimental: (§1) Cell Growth Inhibition Assay
(§2) The human leukemia cell lines MV-4-11, THP-1 and K-562 were employed to characterize the effect of BET inhibitors on cellular proliferation and viability. Cells were obtained from the American Type Culture Collection (ATCC) and cultured at 37° C. in a humidified 5% CO2 incubator in the following media: MV-4-11: DMEM high glucose (Animed #1-26F01-I), 10% FCS (Animed #2-01F26-I), 4 mM L-Glutamine (Animed #5-10K50), 1 mM Sodium Pyruvate (Animed # G03625P), 1× Penicillin-Streptomycin (Animed # F12478P); K-562: Iscove's MEM (Animed #1-28F16-I), 10% FCS (Animed #2-01F26-I), 4 mM L-Glutamine (Animed #5-10K50), 1× Penicillin-Streptomycin (Animed # F12478P); THP-1: RPMI-1640 (Animed #1-41F01-I), 10% FCS (Animed #2-01F26-I), 2 mM L-Glutamine (Animed #5-10K50), 10 mM HEPES (Animed #5-31F100), 1 mM Sodium Pyruvate (Animed # G03625P), 1× Penicillin-Streptomycin (Animed # F12478P). The AML lines MV-4-11 and THP-1 are very sensitive to BET inhibitors and show massive cell death upon BET inhibition (Zuber et al., Nature, 478 (2011), 524-8). Compound-mediated suppression of cell proliferation/viability was assessed by quantification of cellular ATP levels using the CellTiter-Glo (CTG) reagent (Promega). Briefly, cells were seeded in 20 μl fresh medium into 384-well plates, followed by addition of 5 μL medium containing compound dilutions at 5-fold their final intended concentration. Dose-response effects were assessed by 3-fold serial dilutions of the test compound, starting at 10 μM. Following incubation of the cells for 4 days at 37° C. and 5% CO2, the effect of inhibitors on cell viability was quantified following addition of 20 μl CTG and luminescence quantification (integration time: 100 ms) as per vendor manual, using a correspondingly equipped Tecan M200 multi-mode platereader (TECAN, Switzerland). For data analysis, the assay background value determined in wells containing medium, but no cells, was subtracted from all data points. To enable differentiation of cytotoxic from cytostatic compounds, the number of viable cells is assessed relative to that observed at the time of compound addition using a separate cell plate (day 0). The effect of a particular test compound concentration on cell proliferation/viability is expressed as percentage of the background- and day 0-corrected luminescence reading obtained for cells treated with vehicle only (DMSO, 0.1% final concentration), which is set as 100%, whereas that luminescence reading for wells containing medium is set as −100%. Compound concentrations leading to half-maximal (1050) and total growth inhibition (TGI) were determined using standard four parameter curve fitting.

MV-4-11 cells = experiment: Cell growth inhibition assay (CellTiter-Glo), MV-4-11; assay type: cell-based; settings: Homo sapiens, MV4-11
Experimental: as §1, §2

THP-1 cells = experiment: Cell growth inhibition assay (CellTiter-Glo), THP-1; assay type: cell-based; settings: Homo sapiens
Experimental: as §1, §2

| SMILES | GI50 (K-562 cells) | GI50 (MV-4-11 cells) | GI50 (THP-1 cells) |
| --- | --- | --- | --- |
| CCc1c2c(nn1CCO)C(=O)N(c1cc(C)c3onc(C)c3c1)C2c1ccc(Cl)cc1 (stereo not drawn) [Example 80, 4-(4-chlorophenyl)-5-(3,7-dimethylbenzo[d]isoxazol-5-yl)-3-ethyl-2-(2-hydroxyethyl)-4,5-dihydropyrrolo[3,4-c]pyrazol-6(2H)-one] | 868 nM | 356 nM | 354 nM |
| Cc1ncccc1-n1nc2c(c1C)C(c1ccc(Cl)cc1)N(c1cc(C)c(=O)n(C)c1)C2=O (stereo not drawn) [Example 81, 4-(4-chlorophenyl)-5-(1,5-dimethyl-6-oxo-1,6-dihydropyridin-3-yl)-3-methyl-2-(2-methylpyridin-3-yl)-4,5-dihydropyrrolo-[3,4-c]pyrazol-6(2H)-one] | 883 nM | 95.6 nM | 261 nM |
| CCc1nn(C2CC2)c2c1C(c1ccc(Cl)cc1)N(c1cc(OC)c3nnc(C)n3c1)C2=O (stereo not drawn) [Example 84, 4-(4-chlorophenyl)-1-cyclopropyl-3-ethyl-5-(8-methoxy-3-methyl-[1,2,4]triazolo[4,3-a]pyridin-6-yl)-4,5-dihydropyrrolo-[3,4-c]pyrazol-6(1H)-one] | 384 nM | 58.3 nM | 86.9 nM |
| Cc1nn(-c2ccnn2C)c2c1C(c1ccc(Cl)cc1)N(c1cc(C)c3nnc(C)n3c1)C2=O (stereo not drawn) [Example 90, 4-(4-chlorophenyl)-5-(3,8-dimethyl-[1,2,4]triazolo[4,3-a]pyridin-6-yl)-3-methyl-1-(1-methyl-1H-pyrazol-5-yl)-4,5-dihydropyrrolo[3,4-c]pyrazol-6(1H)-one] | 276 nM | 25.5 nM | 51 nM |
| Cc1nn(C2CC2)c2c1C(c1cccc(OC(F)(F)F)c1)N(c1cc(C)c(=O)n(C)c1)C2=O (stereo not drawn) [Example 91, 1-cyclopropyl-5-(1,5-dimethyl-6-oxo-1,6-dihydropyridin-3-yl)-3-methyl-4-(3-(trifluoromethoxy)phenyl)-4,5-dihydropyrrolo-[3,4-c]pyrazol-6(1H)-one] | 2680 nM | 633 nM | 908 nM |
| Cc1nn(C2CC2)c2c1C(c1ccc(Cl)cc1)N(c1cc(C)c3nnc(C)n3c1)C2=O (stereo not drawn) [Example 92, 4-(4-chlorophenyl)-1-cyclopropyl-5-(3,8-dimethyl-[1,2,4]triazolo[4,3-a]pyridin-6-yl)-3-methyl-4,5-dihydropyrrolo-[3,4-c]pyrazol-6(1H)-one] | 65 nM | 10.9 nM | 19.2 nM |
| Cc1cc(N2C(=O)c3nn(C4CC4)c(C)c3C2c2ccc(Cl)cc2)cn2c(C)nnc12 (stereo not drawn) [Example 93, 4-(4-chlorophenyl)-2-cyclopropyl-5-(3,8-dimethyl-[1,2,4]triazolo[4,3-a]pyridin-6-yl)-3-methyl-4,5-dihydropyrrolo[3,4-c]pyrazol-6(2H)-one] | 80 nM | 13.5 nM | 26.4 nM |
| Cc1nn(C2CC2)c2c1C(c1ccc(OC(F)(F)F)cc1)N(c1cc(C)c(=O)n(C)c1)C2=O (stereo not drawn) [Example 95, 1-cyclopropyl-5-(1,5-dimethyl-6-oxo-1,6-dihydropyridin-3-yl)-3-methyl-4-(4-(trifluoromethoxy)phenyl)-4,5-dihydropyrrolo-[3,4-c]pyrazol-6(1H)-one] | 868 nM | 140 nM | 245 nM |
| Cc1nn(C2CC2)c2c1C(c1cccc(C(F)(F)F)c1)N(c1cc(C)c(=O)n(C)c1)C2=O (stereo not drawn) [Example 96, 1-cyclopropyl-5-(1,5-dimethyl-6-oxo-1,6-dihydropyridin-3-yl)-3-methyl-4-(3-(trifluoromethyl)phenyl)-4,5-dihydropyrrolo[3,4-c]pyrazol-6(1H)-one] | 5900 nM | 894 nM | 1260 nM |
| Cc1nn(C2CC2)c2c1C(c1ccc(C(F)(F)F)cc1)N(c1cc(C)c(=O)n(C)c1)C2=O (stereo not drawn) [Example 97, 1-cyclopropyl-5-(1,5-dimethyl-6-oxo-1,6-dihydropyridin-3-yl)-3-methyl-4-(4-(trifluoromethyl)phenyl)-4,5-dihydropyrrolo-[3,4-c]pyrazol-6(1H)-one] | 684 nM | 68 nM | 164 nM |

Further lines, results first:

| GI50 (K-562 cells) | GI50 (MV-4-11 cells) | GI50 (THP-1 cells) | SMILES |
| --- | --- | --- | --- |
| 339 nM | 53.2 nM | 140 nM | CCOc1c2c(nn1C)C(=O)N(c1cc(C)c(=O)n(C)c1)C2c1ccc(Cl)cc1 (stereo not drawn) [Example 76, 4-(4-chlorophenyl)-5-(1,5-dimethyl-6-oxo-1,6-dihydropyridin-3-yl)-3-ethoxy-2-methyl-4,5-dihydropyrrolo-[3,4-c]pyrazol-6(2H)-one] |
| 569 nM | 88.8 nM | 178 nM | COc1c2c(nn1C)C(=O)N(c1cc(C)c(=O)n(C)c1)C2c1ccc(Cl)cc1 (stereo not drawn) [Example 77, 4-(4-chlorophenyl)-5-(1,5-dimethyl-6-oxo-1,6-dihydropyridin-3-yl)-3-methoxy-2-methyl-4,5-dihydropyrrolo-[3,4-c]pyrazol-6(2H)-one] |
| 392 nM | 52 nM | 85.4 nM | CCc1nn(CCO)c2c1C(c1ccc(Cl)cc1)N(c1cc(C)c(=O)n(C)c1)C2=O (stereo not drawn) [Example 78, 4-(4-chlorophenyl)-5-(1,5-dimethyl-6-oxo-1,6-dihydropyridin-3-yl)-3-ethyl-1-(2-hydroxyethyl)-4,5-dihydropyrrolo-[3,4-c]pyrazol-6(1H)-one] |
| 920 nM | 348 nM | 255 nM | CCc1nn(CCO)c2c1C(c1ccc(Cl)cc1)N(c1cc(C)c3onc(C)c3c1)C2=O (stereo not drawn) [Example 79, 4-(4-chlorophenyl)-5-(3,7-dimethylbenzo[d]isoxazol-5-yl)-3-ethyl-1-(2-hydroxyethyl)-4,5-dihydropyrrolo-[3,4-c]pyrazol-6(1H)-one] |
| 920 nM | 94.8 nM | 222 nM | Cc1ncccc1-n1nc(C)c2c1C(=O)N(c1cc(C)c(=O)n(C)c1)C2c1ccc(Cl)cc1 (stereo not drawn) [Example 82, 4-(4-chlorophenyl)-5-(1,5-dimethyl-6-oxo-1,6-dihydropyridin-3-yl)-3-methyl-1-(2-methylpyridin-3-yl)-4,5-dihydropyrrolo[3,4-c]pyrazol-6(1H)-one] |
| 719 nM | 100 nM | 164 nM | Cc1nn(-c2cncn2C)c2c1C(c1ccc(Cl)cc1)N(c1cc(C)c(=O)n(C)c1)C2=O (stereo not drawn) [Example 83, 4-(4-chlorophenyl)-5-(1,5-dimethyl-6-oxo-1,6-dihydropyridin-3-yl)-3-methyl-1-(1-methyl-1H-imidazol-5-yl)-4,5-dihydropyrrolo[3,4-c]pyrazol-6(1H)-one] |
| 229 nM | 34.6 nM | 63.8 nM | CCc1nn(CCOC)c2c1C(c1ccc(Cl)cc1)N(c1cc(C)c(=O)n(C)c1)C2=O (stereo not drawn) [Example 86, 4-(4-chlorophenyl)-5-(1,5-dimethyl-6-oxo-1,6-dihydropyridin-3-yl)-3-ethyl-1-(2-methoxyethyl)-4,5-dihydropyrrolo[3,4-c]pyrazol-6(1H)-one] |
| 128 nM | 16.4 nM | 23.5 nM | CCc1nn(CCOC)c2c1C(c1ccc(Cl)cc1)N(c1cc(C)c3nnc(C)n3c1)C2=O (stereo not drawn) [Example 87, 4-(4-chlorophenyl)-5-(3,8-dimethyl-[1,2,4]triazolo[4,3-a]pyridin-6-yl)-3-ethyl-1-(2-methoxyethyl)-4,5-dihydropyrrolo-[3,4-c]pyrazol-6(1H)-one] |
| 442 nM | 46.5 nM | 40.6 nM | CCc1nn(-c2ccnn2C)c2c1C(c1ccc(Cl)cc1)N(c1cc(C)c(=O)n(C)c1)C2=O (stereo not drawn) [Example 89, 4-(4-chlorophenyl)-5-(1,5-dimethyl-6-oxo-1,6-dihydropyridin-3-yl)-3-ethyl-1-(1-methyl-1H-pyrazol-5-yl)-4,5-dihydropyrrolo-[3,4-c]pyrazol-6(1H)-one] |
| 96.9 nM | 19.5 nM | 34.4 nM | Cc1nn(C2CCC2)c2c1C(c1ccc(Cl)cc1)N(c1cc(C)c(=O)n(C)c1)C2=O (stereo not drawn) [Example 94, 4-(4-chlorophenyl)-1-cyclobutyl-5-(1,5-dimethyl-6-oxo-1,6-dihydropyridin-3-yl)-3-methyl-4,5-dihydropyrrolo-[3,4-c]pyrazol-6(1H)-one] |
